Consider five compounds from publication PMC5685716, “Oral 4-(N)-stearoyl gemcitabine nanoparticles inhibit tumor growth in mouse models” (Oncotarget, 2017).

On the set-up of data set [1]: method as in PMID 19860433, PMID 17090088. The settings on record: oral, animal (rodent) models; cited from earlier work.
Another data set concerns leukemia. The settings on record: oral, rat leukemia model; cited from earlier work.
Details of data set [2]: method as in PMID 18473859, PMID 18474674. The settings on record: in water; cited from earlier work.
A further data set deals with TC-1 tumor cells. Set-up: method as in PMID 23570983. The note with it: 3 × 10^3 cells, 48 h of incubation; cited from earlier work.
Details of data set [3]: method as in PMID 18519780. The settings on record: human subjects, patients with advanced or metastatic cancer, estimated; cited from earlier work.
The subject of another data set is LLC tumors. Nature of the data set: Antitumor activity in mice with LLC lung tumors. Type of data set: in vivo, C57BL/6J mice. The note with it: p.o. once in every two days, GemC18 250 μg/mouse, GemHCl 141.5 μg/mouse (molar equivalent). As for the experimental part:
LLC tumors were established in female C57BL/6J mice (6-8 week) from the Beijing Vital River Laboratory Animal Technology Co., Ltd. (Beijing, China). Mice were s.c. injected with LLC cells (5 × 10^5) in their back on day 0. On day 11, mice were randomized into groups (n = 8) and were treated by oral gavage with GemC18-SLNs, GemC18-free SLNs, GemC18 alone in a Tween 20 solution, GemHCl (molar equivalent of GemC18), all in a mannitol solution (5%, w/v). Control mice were orally gavaged with a mannitol solution (5%). Mice were treated once in every two days for 3 weeks. The dose of GemC18 was 250 μg/mouse, 141.5 μg/mouse for GemHCl (i.e. molar equivalent to 250 μg of GemC18). GemC18 was dissolved into 1% (v/v) Tween 20 in a 5% (w/v) mannitol solution to a proper concentration. Mouse health was monitored daily, and weight recorded. Tumor size was measured every other day. […] Microscopic images taken at 200 x magnification were analyzed using an Image-Pro Plus software (Media Cybernetics, Inc., Shanghai, China) to determine the percent of cells that are Ki67 positive, the microvessel density (MVD) in tumor tissues, and the optical density of the anti-caspase 3 staining.

Details of data set [4]: method as in PMID 19860433, PMID 26806350. The settings on record: cited from earlier work.
The next data set has as its system LLC cells. Set-up: method as in earlier work. The note with it: 3 × 10^3 cells, 48 h incubation; cited from earlier work.
For data set [5], the system named is TC-1 tumors. More on the design: method as in PMID 21371545, PMID 22471294. The settings on record: GemC18 dissolved in a Tween 20 solution; cited from earlier work.
A further data set deals with B16F10 tumors. Set-up: method as in PMID 21371545, PMID 22471294. The settings on record: GemC18 dissolved in a Tween 20 solution; cited from earlier work.
In another data set the test system is HT-29 tumor cells. Set-up: method as in PMID 17352232. The settings on record: peritumoral injection, GemC18 in a Tween 80 solution; cited from earlier work.
Data set [6] has as its system TC-1 tumors. The data set is described as follows: Antitumor activity in mice with pre-established TC-1 tumors. Type of data set: in vivo, C57BL/6 mice. The settings on record: p.o. once daily, GemC18 150 μg/mouse, gemcitabine HCl 85 μg/mouse (molar equivalent). The text has this:
When TC-1 tumor cells were used, female C57BL/6 mice (18-20 g, 6-8 weeks, n = 5) were subcutaneously (s.c) injected with TC-1 cells (5 × 10^5 cells/mouse) in the right flank on day 0. Mouse hair was carefully trimmed at the injection site one day prior to the injection. Treatment with GemC18-SLNs, GemC18-in-vegetable oil (GemC18-in-oil), GemC18-free SLNs, all in a mannitol solution (5%, w/v), was started on day 11, and mice were orally gavaged daily until the endpoint (i.e. death, tumor size reaching 15 mm, tumor ulceration, body weight loss of more than 20%, or other signs of severe distress and discomfort). As controls, mice were orally gavaged with a mannitol solution (5%) or i.v. injected with the GemC18-SLNs, twice a week until the endpoint. The dose of GemC18 was 250 μg per mouse per dose for the oral route, 500 μg per mouse per dose for i.v. route. Tumor size was measured 2-3 times a week, and tumor volume was calculated as: volume (mm^3) = (length x width^2)/2. Mouse survival time was also recorded. In another study, TC-1 tumor-bearing female C57BL/6 mice were orally gavaged with GemC18-SLNs, GemC18-in-oil, vegetable oil alone (oil), or gemcitabine HCl (GemHCl, as a control), once daily. The dose of GemC18 was 150 μg per mouse per dose, and dose of GemHCl was 85 μg per mouse per dose (i.e. molar equivalent to the dose of GemC18).

Details of data set [7]: method as in PMID 19860433. The settings on record: mouse model, molar equivalent dose, cited from earlier work.

Values after ≈ are worked out from the molar mass of the structure shown. Values joined by “and” are separate entries in the source; they are usually repeats but may differ in a detail not shown here. Equal values may be shown once. Where a name gives a salt, the structure may show the parent alone. Read-outs that look alike come from different tables or passages of the source.

In the case of `CC(C)=CCC/C(C)=C/CC/C(C)=C/CC/C=C(\C)CC/C=C(\C)CCC(=O)Nc1ccn([C@@H]2O[C@H](CO)[C@@H](O)C2(F)F)c(=O)n1` [SQdFdC], the “antitumor activity vs molar equivalent dose of gemcitabine” value in data set [1] is “stronger antitumor activity”. Besides, in the data set on leukemia, the antitumor activity entry is listed as “potent antitumor activity”. For the same compound, the “size of self-assembled nanoparticles” value in data set [2] is 100-300 nm.

As a reminder, the IC50 is the concentration that inhibits the measured activity by half. Consider `Nc1ccn([C@@H]2O[C@H](CO)[C@@H](O)C2(F)F)c(=O)n1` [gemcitabine, 2′,2′-difluorodeoxycytidine], for which the 50% inhibitory concentration (IC50) with TC-1 tumor cells is 10.6 ± 1.1 nM. Moreover, the oral bioavailability in data set [3] was 10% and ~ 10%.

Take `CCCCCCCCCCCCCCCCCC(=O)Nc1ccn([C@@H]2OC(CO)C(O)C2(F)F)c(=O)n1` (stereo partly shown) [GemC18, 4-(N)-stearoyl gemcitabine]: the LLC tumor growth result with LLC tumors is given as “also inhibited LLC tumor growth, but they were significantly less effective than oral GemC18-SLNs”. The solubility in water in [4] is 1.38 ± 1.60 µg/mL (≈ 2.61 µM). The values for the half-maximal inhibitory concentration (IC50) in the data set with TC-1 tumor cells and with LLC cells were 18.5 ± 1.7 nM and 130 ± 31.1 nM, respectively. For the same compound, the antitumor activity entry with TC-1 tumors [5] and in the data set with B16F10 tumors was “did not show any significant antitumor activity” each time. Also, in the data set on HT-29 tumor cells, the tumor growth entry is “did not significantly affect the tumor growth”.

`Nc1ccn([C@@H]2O[C@H](CO)[C@@H](O)C2(F)F)c(=O)n1` [gemcitabine HCl]: the TC-1 tumor growth result with TC-1 tumors [6] is listed as “significantly less effective than the GemC18-SLNs”. Besides, the LLC tumor growth entry with LLC tumors is “also inhibited LLC tumor growth, but they were significantly less effective than oral GemC18-SLNs”. The IC50 in the data set on LLC cells was 23.4 ± 6.7 nM.

Regarding `CCCC(CCC)C(=O)Nc1ccn([C@@H]2O[C@H](CO)[C@@H](O)C2(F)F)c(=O)n1` [LY2334737], the solubility in water in [4] is over 2000 µg/mL. In addition, in [1], the “antitumor activity vs molar equivalent dose of gemcitabine” value is “stronger antitumor activity”. The “systemic exposure (AUC) vs oral gemcitabine” value is “higher systemic exposure of gemcitabine than oral free gemcitabine” in [7] (listed as LY2334734) and “significantly higher” in data set [7].
